How the values were obtained:
Format in all cases: functional, cell-based
[1] = system: MCF7; experiment: Antiproliferative activity against human MCF7 cells assessed as cell viability measured after 48 hrs incubation by MTT assay; settings: MCF7, 48 h
[2] = system: A549; experiment: Antiproliferative activity against human A549 cells assessed as cell viability measured after 48 hrs incubation by MTT assay; settings: A549, 48 h
[3] = system: HepG2; experiment: Antiproliferative activity against human HepG2 cells assessed as cell viability measured after 48 hrs incubation by MTT assay; settings: HepG2, 48 h

Row | SMILES | IC50 [1] [µM] | IC50 [2] [µM] | IC50 [3] [µM]
1 | COc1ccccc1/C=C1/SC(=O)N(CC(=O)O[C@H]2CC[C@]3(C)[C@H]4CC[C@]5(C)[C@@H]([C@H](C)/C=C/[C@H](C)C(C)C)CC[C@H]5[C@@]45C=C[C@]3(C2)OO5)C1=O | 14.3 | 13.1 | 18.9
2 | CC(C)[C@@H](C)/C=C/[C@@H](C)[C@H]1CC[C@@H]2[C@]1(C)CC[C@H]1[C@]23C=C[C@]2(C[C@@H](OC(=O)CN4C(=O)S/C(=C/c5ccc(Br)cc5)C4=O)CC[C@]12C)OO3 | 12.3 | 9.5 | 17.8
3 | COc1ccc(/C=C2/SC(=O)N(CC(=O)O[C@H]3CC[C@]4(C)[C@H]5CC[C@]6(C)[C@@H]([C@H](C)/C=C/[C@H](C)C(C)C)CC[C@H]6[C@@]56C=C[C@]4(C3)OO6)C2=O)cc1 | 18.4 | 9.91 | 10.7
4 | CC(C)[C@@H](C)/C=C/[C@@H](C)[C@H]1CC[C@@H]2[C@]1(C)CC[C@H]1[C@]23C=C[C@]2(C[C@@H](OC(=O)CN4C(=O)S/C(=C/c5ccc(F)c(Cl)c5)C4=O)CC[C@]12C)OO3 | 11.1 | 7.92 | 15.8
5 | CC(C)[C@@H](C)/C=C/[C@@H](C)[C@H]1CC[C@@H]2[C@]1(C)CC[C@H]1[C@]23C=C[C@]2(C[C@@H](OC(=O)CN4C(=O)CSC4=O)CC[C@]12C)OO3 | 10.4 | 7.52 | 17.7
6 | CC(C)[C@@H](C)/C=C/[C@@H](C)[C@H]1CC[C@@H]2[C@]1(C)CC[C@H]1[C@]23C=C[C@]2(C[C@@H](OC(=O)CN4C(=O)S/C(=C/c5cccs5)C4=O)CC[C@]12C)OO3 | 16.6 | 7.4 | 17.3
7 | CC(C)[C@@H](C)/C=C/[C@@H](C)[C@H]1CC[C@@H]2[C@]1(C)CC[C@H]1[C@]23C=C[C@]2(C[C@@H](OC(=O)N4CCN(C(=O)CN5C(=O)S/C(=C\c6ccc(C(C)(C)C)cc6)C5=O)CC4)CC[C@]12C)OO3 | 14.4 | 11.6 | 19.5
8 | CC(C)[C@@H](C)/C=C/[C@@H](C)[C@H]1CC[C@@H]2[C@]1(C)CC[C@H]1[C@]23C=C[C@]2(C[C@@H](OC(=O)N4CCN(C(=O)CN5C(=O)S/C(=C\C6CC6)C5=O)CC4)CC[C@]12C)OO3 | 7.17 | 6.06 | 8.97
9 | CC(C)[C@@H](C)/C=C/[C@@H](C)[C@H]1CC[C@@H]2[C@]1(C)CC[C@H]1[C@]23C=C[C@]2(C[C@@H](OC(=O)N4CCN(C(=O)CN5C(=O)S/C(=C\c6ccoc6)C5=O)CC4)CC[C@]12C)OO3 | 16.7 | 10.4 | 19.8
10 | CC(C)[C@@H](C)/C=C/[C@@H](C)[C@H]1CC[C@@H]2[C@]1(C)CC[C@H]1[C@]23C=C[C@]2(C[C@@H](OC(=O)N4CCN(C(=O)CN5C(=O)S/C(=C\c6cccc7ccccc67)C5=O)CC4)CC[C@]12C)OO3 | 9.41 | 7.88 | 14.5
11 | CC(C)[C@@H](C)/C=C/[C@@H](C)[C@H]1CC[C@@H]2[C@]1(C)CC[C@H]1[C@]23C=C[C@]2(C[C@@H](OC(=O)N4CCN(C(=O)CN5C(=O)S/C(=C\c6ccc(Br)cc6)C5=O)CC4)CC[C@]12C)OO3 | 10.4 | 5.74 | 12.4
12 | CC(C)[C@@H](C)/C=C/[C@@H](C)[C@H]1CC[C@@H]2[C@]1(C)CC[C@H]1[C@]23C=C[C@]2(C[C@@H](OC(=O)CN4C(=O)S/C(=C/C5CC5)C4=O)CC[C@]12C)OO3 | 9.35 | 13 | 13.1
13 | CC(C)[C@@H](C)/C=C/[C@@H](C)[C@H]1CC[C@H]2C3=CC=C4C[C@@H](OC(=O)NCCNC(=O)CN5C(=O)S/C(=C\C6CC6)C5=O)CC[C@]4(C)[C@H]3CC[C@]12C | > 80 | > 80 | > 80
14 | CC(C)/C=C1/SC(=O)N(CC(=O)O[C@H]2CC[C@]3(C)[C@H]4CC[C@]5(C)[C@@H]([C@H](C)/C=C/[C@H](C)C(C)C)CC[C@H]5[C@@]45C=C[C@]3(C2)OO5)C1=O | 20.4 | 7.65 | 14.6
15 | Cc1ccc(/C=C2/SC(=O)N(CC(=O)O[C@H]3CC[C@]4(C)[C@H]5CC[C@]6(C)[C@@H]([C@H](C)/C=C/[C@H](C)C(C)C)CC[C@H]6[C@@]56C=C[C@]4(C3)OO6)C2=O)cc1 | 11.5 | 14.2 | 14.6
16 | CC(C)[C@@H](C)/C=C/[C@@H](C)[C@H]1CC[C@@H]2[C@]1(C)CC[C@H]1[C@]23C=C[C@]2(C[C@@H](OC(=O)NCCNC(=O)CN4C(=O)S/C(=C\c5ccc(C(C)(C)C)cc5)C4=O)CC[C@]12C)OO3 | 10.7 | 6.68 | 9.86
17 | CC(C)[C@@H](C)/C=C/[C@@H](C)[C@H]1CC[C@@H]2[C@]1(C)CC[C@H]1[C@]23C=C[C@]2(C[C@@H](OC(=O)CN4C(=O)S/C(=C/c5ccco5)C4=O)CC[C@]12C)OO3 | 21 | 15 | 20.2
18 | CC(C)[C@@H](C)/C=C/[C@@H](C)[C@H]1CC[C@@H]2[C@]1(C)CC[C@H]1[C@]23C=C[C@]2(C[C@@H](OC(=O)CN4C(=O)S/C(=C/c5ccc(Cl)cc5)C4=O)CC[C@]12C)OO3 | 9.92 | 9.18 | 13.5
19 | Cc1ccc(/C=C2\SC(=O)N(CC(=O)N3CCN(C(=O)O[C@H]4CC[C@]5(C)[C@H]6CC[C@]7(C)[C@@H]([C@H](C)/C=C/[C@H](C)C(C)C)CC[C@H]7[C@@]67C=C[C@]5(C4)OO7)CC3)C2=O)cc1 | 9.45 | 7.01 | 10.4
20 | COc1cccc(/C=C2/SC(=O)N(CC(=O)O[C@H]3CC[C@]4(C)[C@H]5CC[C@]6(C)[C@@H]([C@H](C)/C=C/[C@H](C)C(C)C)CC[C@H]6[C@@]56C=C[C@]4(C3)OO6)C2=O)c1 | 17 | 10.8 | 15.3
21 | COc1ccccc1/C=C1\SC(=O)N(CC(=O)N2CCN(C(=O)O[C@H]3CC[C@]4(C)[C@H]5CC[C@]6(C)[C@@H]([C@H](C)/C=C/[C@H](C)C(C)C)CC[C@H]6[C@@]56C=C[C@]4(C3)OO6)CC2)C1=O | 15.4 | 10.2 | 22.6
22 | CC(C)[C@@H](C)/C=C/[C@@H](C)[C@H]1CC[C@@H]2[C@]1(C)CC[C@H]1[C@]23C=C[C@]2(C[C@@H](OC(=O)CN4C(=O)S/C(=C/c5ccc(C(C)(C)C)cc5)C4=O)CC[C@]12C)OO3 | 9.44 | 8.31 | 15.4
23 | CC(C)[C@@H](C)/C=C/[C@@H](C)[C@H]1CC[C@@H]2[C@]1(C)CC[C@H]1[C@]23C=C[C@]2(C[C@@H](OC(=O)N4CCN(C(=O)CN5C(=O)S/C(=C\c6ccsc6)C5=O)CC4)CC[C@]12C)OO3 | 13.6 | 8.14 | 16.8
24 | CC(C)[C@@H](C)/C=C/[C@@H](C)[C@H]1CC[C@@H]2[C@]1(C)CC[C@H]1[C@]23C=C[C@]2(C[C@@H](OC(=O)N4CCN(C(=O)CN5C(=O)S/C(=C\c6ccc(F)cc6)C5=O)CC4)CC[C@]12C)OO3 | 12.2 | 9.34 | 12
